# Experimental data taken from US7642261B2, “Use of 1-[4-(5-cyanoindol-3-yl)butyl]-4-(2-carbamoyl-benzofuran-5-yl)-piperazine and its physiologically acceptable salts” (Merck Patent GmbH, priority 2002, dated 2010).
# Legend:
# Format in all cases: in vivo
# [1] = test system: mice; experiment: Elevated Plus Maze (model for agoraphobia), mice; conditions: 10 mg/kg p.o., 3 min test period
# Description: A typical model for Agoraphobia is named Elevated Plus Maze according to S. Pellow, P. Chopin, S. E. File, M. Briley, J. Neurosci. Meth., 1985,14: 145-167.
# The apparatus consists of an X-shaped platform elevated from the floor, with two “open” unprotected arms and two “closed” protected arms, with animals having free access to both arms. The rat or mouse is placed in the centre of the arms, and the number of entires made and the time spent on the open arms is measured in a 3 min test period. Normal animals have very low basal levels, i.e. avoid entering the open arms and stay only a for a very brief period on open arms.
# In rats, a dose of 10 mg/kg p.o. increased number of entries by 56% and time spent on open arms by 76%.
# [2] = test system: rats; experiment: Social Interaction Test (model for social phobia); conditions: pairs of unfamiliar rats, oral dose of 10 mg/kg, 300 sec total time; vehicle 116 sec
# Description: A model for social phobia is the Social Interaction Test according to S. File, J. R. G Hyde, J. Pharm. Pharmacol. 1977, 29: 735-738. Pairs of rats not familiar with each other are placed in an open test box brightly lit (aversive condition), and the number and duration of social contacts during a 5 min test session are recorded.
# 1-[4-(5-cyanoindol-3-yl)butyl]-4-(2-carbamoyl-benzofuran-5-yl)-piperazine or one of its physiologically acceptable salts, in particular 1-[4-(5-cyanoindol-3-yl)butyl]-4-(2-carbamoyl-benzofuran-5-yl)-piperazine hydrochloride, increase the time spent in social interaction. For example, for an oral dose of 10 mg/kg of 1-[4-(5-cyanoindol-3-yl)butyl]-4-(2-carbamoyl-benzofuran-5-yl)-piperazine hydrochloride the pairs of rats unfamiliar to each other spend 144 sec of the 300 sec of total time with social interaction compared to 116 sec for the vehicle treated pairs of rats.
# [3] = test system: rats; experiment: Models for anxiety associated with posttraumatic stress (cat stressor; hole board, elevated plus maze, acoustic startle); conditions: given after (acute treatment) and before (prophylactic treatment) the cat stressor
# Source text: Animal models of anxiety associated with posttraumatic stress in rats utilize the long-lasting behavioural changes induced by exposure to a native stressor. The therapeutic effects of a compound effective for the acute treatment of anxiety associated with posttraumatic stress are modelled by administration of the compound after exposure to the stressor. The therapeutic effects of a compound effective for the prophylactic treatment of anxiety associated with posttraumatic stress are modelled by administration of the compound before exposure to the stressor. Amongst the several behavioral test procedures, the following is most validated [R. E. Adamec and T. Shallow, Physiology Behavior, 1993, 54: 101-109; R. E. Adamec et al., Behav. Neurosci. 1997, 111: 435-449]. […] The hole board consists of a box (60 cm×60 cm) with four evenly spaced holes; the number of poking its head into a hole is counted for 5 minutes. […] The rat is placed in the centre of the arms, and the frequency of attempts to enter an open arm (risk assessment) as well as the time spent on the open and closed arms are measured. In the acoustic startle test, the rat is placed in a plexiglass cylinder, and a series of 20 white noise bursts of 120 dB out of a background noise of 60 dB is applied, and the latency to and the peak startle amplitude are measured. […]
# [4] = test system: mice; experiment: Four Plate Test (model for acute stress indication); conditions: oral dose of 3 mg/kg, five minute test period
# Description: A typical model for acute stress indication is the Four Plate Test according to C. Aron, P. Simon, C. Larousse, J. R. Boissier, Neuropharmacology 1971, 10: 459-469.
# The apparatus consists of small box with a floor made up of four metal plates. Each time the mouse crosses from one plate to another, it is given a brief electric footshock reducing the amount of exploratory behavior. The number of punished crossings from one plate to another (i.e. number of shocks accepted by the animal) is recorded during a five minute test period. Normal mice make only few punished crossings, i.e. accept only a few footshocks.
# 1-[4-(5-cyanoindol-3-yl)butyl]-4-(2-carbamoyl-benzofuran-5-yl)-piperazine hydrochloride following and oral dose of 3 mg/kg increased the number of punished crossings by 41%.
# [5] = Cumulative Food Intake / development of body weight, rats or mice; conditions: free access to food
# Description: A typical animal model for eating disorders and/or obesity and/or anorexia is named Cumulative Food Intake according to H. C. Jackson, A. M, Needham, L. J. Hutchins, S. E. Mazurkiewicz, D. J. Heal, Br. J. Pharmacol., 1997, 121: 1758-1762, which can be utilized in various species. Usually, rats or mice are given free access to food, and the development of body weight is measured over time. The test can be performed in both starved and non-starved rats or mice. Moreover, chronic or acute administration of a medication can be investigated.
# Thus, differential effects on body weight indicating therapeutic efficacy in either obesity or anorexia depending on the dose range used are evident.
# [6] = Abdominal constriction (writhing) test; conditions: 30 mg/kg p.c.
# Description: (§1) Rapid procedures to test pain-relieving properties of drugs are the abdominal constriction (writhing) test according to E. Siegmund et all., Proc. Soc. Exp. Biol. Med. 1957, 95: 729-731 and the intradermal formalin test according to S. Hunskaar et al., J. Neurosci. Meth. 1985, 14: 69-76. For example, 1-[4-(5-cyanoindol-3-y1)butyl]-4-(2-carbamoyl-benzofuran-5-yl)-piperazine hydrochloride at 30 mg/kg p.c. reduced abdominal contrictions by 82%, and 10 mg/kg p.o. reduced the formalin-induced pain response by 79%.
# [7] = Intradermal formalin test; conditions: 10 mg/kg p.o.
# Description: as §1
smiles,measurement,setting,value
Cl.N#Cc1ccc2[nH]cc(CCCCN3CCN(c4ccc5oc(C(N)=O)cc5c4)CC3)c2c1 [1-[4-(5-cyanoindol-3-yl)butyl]-4-(2-carbamoyl-benzofuran-5-yl)-piperazine hydrochloride],increase of number of entries on open arms,[1],157%
same,increase of time spent on open arms,[1],105%
same,time spent in social interaction,[2],144 s
same,effect in models for anxiety associated with posttraumatic stress,[3],effective
same,increase of number of punished crossings,[4],41%
same,body weight at lower doses,"[5]; orally for 4 consecutive days, lower doses of up to 50 mg/kg",increased body weight
same,development of body weight at higher doses,"[5]; orally up to 360 mg/kg for 4 consecutive days, higher doses",reduced development of body weight
same,reduction of abdominal constrictions,[6],82%
same,reduction of formalin-induced pain response,[7],79%
